Kd data for 15 molecules are collected here from patent publication US20070207175A1, “Biaromatic compound activators of PPARgamma receptors and cosmetic/pharmaceutical compositions comprised thereof” (GALDERMA RESEARCH & DEVELOPMENT, priority 2004, published 2007).

Holding throughout (assay type): cell-based
One assay concerns the target T1, PPARγ (Homo sapiens, UniProt P37231).
T1 sequence (P37231 238-505 limits assumed): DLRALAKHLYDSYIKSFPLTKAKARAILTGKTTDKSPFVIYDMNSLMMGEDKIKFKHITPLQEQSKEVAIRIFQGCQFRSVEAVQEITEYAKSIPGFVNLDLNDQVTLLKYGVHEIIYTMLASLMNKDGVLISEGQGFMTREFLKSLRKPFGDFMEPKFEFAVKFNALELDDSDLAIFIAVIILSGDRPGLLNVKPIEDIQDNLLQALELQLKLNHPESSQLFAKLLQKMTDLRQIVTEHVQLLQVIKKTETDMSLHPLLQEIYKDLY
The assay can be described thus: Crossed-curve PPAR transactivation assay (PPARγ). To be noted: HeLN cells stably transfected with Gal-hPPARγ and luciferase reporter; Schild regression against reference agonist; n.a. means not active; read-out: PPARγ Kdapp. As to the method: (§1) Activation of the PPAR receptors by an agonist (activator) in HeLN cells leads to the expression of a reporter gene, luciferase, which, in the presence of a substrate, generates light. The modulation of the PPAR receptors is measured by quantifying the luminescence produced after incubation of the cells in the presence of a reference agonist. The ligands will displace the agonist from its site. The measurement of the activity is performed by quantifying the light produced. This measurement makes it possible to determine the modulatory activity of the compounds according to the invention by the determination of the constant which is the affinity of the molecule for the PPAR receptor. Since this value can fluctuate depending on the basal activity and the expression of the receptor, it is referred to as apparent Kd (Kdapp in nM).
(§2) To determine this constant, “crossed curves” for the test product, against a reference agonist, are prepared using a 96-well plate: 10 concentrations of the test product plus a concentration 0 are arranged in a line, and 7 concentrations of the agonist plus a concentration 0 are arranged in a column. This is 88 measurement points for 1 product and 1 receptor. The remaining 8 wells are used for repeatability controls.
(§3) Measurements are also taken for total agonist controls with the same products.
(§4) The HeLN cell lines used are stable transfectants containing the plasmids ERE-βGlob-Luc-SV-Neo (reporter gene) and PPAR (α, δ, γ) Gal-hPPAR. These cells are seeded in 96-well plates at the rate of 10,000 cells per well in 100 μl of DMEM medium without phenol red and supplemented with 10% of defatted calf serum. The plates are then incubated for 16 hours at 37° C. and 7% CO2.
(§5) The various dilutions of the test products and of the reference ligand are added at the rate of 5 μl per well. The plates are subsequently incubated for 18 hours at 37° C. and 7% CO2. The culture medium is removed by turning over and 100 μl of a 1:1 PBS/luciferin mixture are added to each well. After 5 minutes, the plates are read using the luminescence reader.
(A reporter such as luciferase makes a cellular process visible.)

For another assay, the target named is T2, PPARδ (Homo sapiens, UniProt Q03181).
T2 sequence (Q03181 211-441 limits assumed): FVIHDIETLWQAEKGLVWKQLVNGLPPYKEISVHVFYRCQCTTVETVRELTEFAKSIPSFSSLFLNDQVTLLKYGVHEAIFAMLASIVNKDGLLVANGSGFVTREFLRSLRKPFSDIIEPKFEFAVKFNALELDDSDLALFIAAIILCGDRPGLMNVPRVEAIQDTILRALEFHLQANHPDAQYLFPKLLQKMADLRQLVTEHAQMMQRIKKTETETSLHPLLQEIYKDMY
As to the kind of experiment: Crossed-curve PPAR transactivation assay (PPARδ). To be noted: HeLN cells stably transfected with Gal-hPPARδ and luciferase reporter; Schild regression against reference agonist; n.a. means not active; read-out: PPARδ Kdapp. As to the method: as §1, §2, §3, §4, §5

A further assay concerns the target T3, PPARα (Homo sapiens, UniProt Q07869).
T3 sequence (Q07869 200-468 limits assumed): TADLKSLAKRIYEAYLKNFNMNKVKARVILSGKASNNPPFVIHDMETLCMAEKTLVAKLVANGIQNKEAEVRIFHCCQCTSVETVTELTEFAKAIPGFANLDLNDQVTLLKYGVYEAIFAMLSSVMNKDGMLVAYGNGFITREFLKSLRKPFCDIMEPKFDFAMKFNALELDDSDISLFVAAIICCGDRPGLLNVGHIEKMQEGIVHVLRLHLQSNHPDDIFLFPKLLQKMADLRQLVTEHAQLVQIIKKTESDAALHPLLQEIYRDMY
The assay can be described thus: Crossed-curve PPAR transactivation assay (PPARα). To be noted: HeLN cells stably transfected with Gal-hPPARα and luciferase reporter; Schild regression against reference agonist; n.a. means not active; read-out: PPARα Kdapp. As to the method:
as §1
To determine this constant, “crossed curves” for the test product, against a reference agonist, are prepared using a 96-well plate: 10 concentrations of the test product plus a concentration 0 are arranged in a line, and 7 concentrations of the agonist plus a concentration 0 are arranged in a column. This is 88 measurement points for 1 product and 1 receptor. […]
The various dilutions of the test products and of the reference ligand are added at the rate of 5 μl per well. […] After 5 minutes, the plates are read using the luminescence reader.

The structures appear in SMILES notation.

Take `CCCCCCCC(=O)N(C)Cc1cccc(-c2ccc(/C=C/C(=O)O)cc2)c1` [Example 1, 3-(3′-[((methyl)(octanoyl)amino)methyl]biphenyl-4-yl)acrylic acid]: the Kd on PPARγ was 0.5 µM.

`CCCCCCCC(=O)N(C)Cc1cccc(-c2ccc(CCC(=O)O)cc2)c1` [Example 2, 3-{3′-[((methyl)(octanoyl)amino)methyl]biphenyl-4-yl}propanoic acid]: the Kd on PPARγ is 0.12 µM.

With `CCCCCCCC(=O)N(C)Cc1cccc(-c2ccc(/C=C/C(=O)O)c(F)c2)c1` [Example 3, 3-{3-fluoro-3′-[((methyl)(octanoyl)amino)methyl]biphenyl-4-yl}acrylic acid], on PPARγ, the Kd was 0.06 µM.

`CCCCCCCC(=O)N(C)Cc1cccc(-c2ccc(CCC(=O)O)c(F)c2)c1` [Example 4, 3-[3-fluoro-3′-[((methyl)(octanoyl)amino)methyl]biphenyl-4-yl)propanoic acid]: on PPARγ, the Kd worked out at 0.25 µM.

Turning to `CCCCCCCC(=O)NCc1cccc(-c2ccc(CCC(=O)O)cc2)c1` [Example 6, 3-[3′-((octanoylamino)methyl)biphenyl-4-yl]propanoic acid], on PPARγ, the Kd is 4 µM.

In the case of `CCCCCCCC(=O)N(C)Cc1cccc(-c2ccc(CCC(=O)O)c(O)c2)c1` [Example 7, 3-{3-hydroxy-3′-[((methyl)(octanoyl)amino)methyl]biphenyl-4-yl}propanoic acid], the Kd on PPARγ amounted to 4 µM.

For `CCCCCCCC(=O)N(C)Cc1cccc(-c2ccc(CCC(=O)O)cc2OCCCC)c1` [Example 8, 3-{2-butoxy-3′-[((methyl)(octanoyl)amino)methyl]biphenyl-4-yl}propanoic acid], the Kd at PPARγ stood at 0.001 µM.

Regarding `CCCCCC(=O)N(C)Cc1cccc(-c2ccc(CCC(=O)O)cc2OCCCC)c1` [Example 9, 3-{2-butoxy-3′-[((hexanoyl)(methyl)amino)methyl]biphenyl-4-yl}propanoic acid], the Kd on PPARδ amounted to 4 µM; on PPARγ it was 0.004 µM; at PPARα, 4 µM.

With `CCCCOc1cc(CCC(=O)O)ccc1-c1cccc(CN(C)C(=O)CCCC)c1` [Example 10, 3-{2-butoxy-3′-[((methyl)(pentanoyl)amino)methyl]biphenyl-4-yl}propanoic acid], the figures for the Kd at PPARδ and on PPARγ were 4 µM and 0.004 µM, respectively.

With `CCCCCCC(=O)N(C)Cc1cccc(-c2ccc(CCC(=O)O)cc2OCCCC)c1` [Example 11, 3-{2-butoxy-3′-[((heptanoyl)(methyl)amino)methyl]biphenyl-4-yl}propanoic acid], the Kd on PPARδ was determined as 4 µM; at PPARγ it was 0.001 µM; on PPARα, 0.5 µM.

Consider `CCCCOc1cc(CCC(=O)O)ccc1-c1cccc(CN(C)C(=O)c2ccc(OCC)cc2)c1` [Example 12, 3-(2-butoxy-3′-{[(4-ethoxybenzoyl)(methyl)amino]methyl}biphenyl-4-yl)propanoic acid], for which the Kd at PPARγ turned out to be 0.00025 µM.

Regarding `CCCCOc1ccc(C(=O)N(C)Cc2cccc(-c3ccc(CCC(=O)O)cc3OCCCC)c2)cc1` [Example 13, 3-(2-butoxy-3′-{[(4-butoxybenzoyl)(methyl)amino]methyl}biphenyl-4-yl)propanoic acid], the Kd on PPARγ was determined as 0.001 µM.

As to `CCCCOc1cc(CCC(=O)O)ccc1-c1cccc(CN(C)C(=O)c2ccccc2)c1` [Example 14, 3-{3′-[((benzoyl)(methyl)amino)methyl]-2-butoxybiphenyl-4-yl}propanoic acid], the Kd on PPARγ amounted to 0.008 µM.

On to `CCCCOc1cc(CCC(=O)O)ccc1-c1cccc(CN(C)C(=O)c2ccc(OC)cc2)c1` [Example 15, 3-(2-butoxy-3′-{[(4-methoxybenzoyl)(methyl)amino]methyl}biphenyl-4-yl)propanoic acid], for which the Kd was 4 µM on PPARδ and 0.0005 µM at PPARγ.

`CCCCOc1cc(CCC(=O)O)ccc1-c1cccc(CN(C)C(=O)c2cccc(OC)c2)c1` [Example 16, 3-(2-butoxy-3′-{[(3-methoxybenzoyl)(methyl)amino]methyl}biphenyl-4-yl)propanoic acid]: the Kd on PPARδ is 4 µM; on PPARγ, 0.004 µM.
